According to the supplement of paper PMC10883282:
± gives the standard deviation of the averaged measurements.

Tests used:
Experiment in all cases: relative viability vs DMSO control (72 h) (fraction); higher = more viable cells
SW872 = test system: SW872
In short: (§1)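 Sarcoma cell lines in 384-well plates, seeded to reach 80–90% confluence, were given compound after 24 h and kept 72 h at 37 °C, 5% CO2, with 0.1% DMSO vehicle and a 5 µM positive control. Relative viability came from ATPLite as percent growth, averaged over up to triplicate wells. On the rescaled values, 1 equals full and 0 equals none.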

VA-ES-BJ = test system: VA-ES-BJ
In short: as §1

SW684 = test system: SW684
In short: as §1

KHOS-NP = test system: KHOS-NP
In short: as §1

RD = test system: RD
In short: as §1

RD-ES = test system: RD-ES
In short: as §1

MES-SA = test system: MES-SA
In short: as §1

G401 = test system: G401
In short: as §1

HT1080 = test system: HT1080
In short: as §1

SW1353 = test system: SW1353
In short: as §1

SK-ES-1 = test system: SK-ES-1
In short: as §1

SK-LMS-1 = test system: SK-LMS-1
In short: as §1

## Cc1ccc(Nc2nccc(N(C)c3ccc4c(C)n(C)nc4c3)n2)cc1S(N)(=O)=O [Pazopanib]
SW872; 0.00017 µM
  relative viability: 1 ± 0.015
SW872; 0.00051 µM
  relative viability: 0.986 ± 0.026
SW872; 0.00152 µM
  relative viability: 0.988 ± 0.015
SW872; 0.00457 µM
  relative viability: 0.9911 ± 0.0071
SW872; 0.01372 µM
  relative viability: 0.989 ± 0.018
SW872; 0.04115 µM
  relative viability: 0.934 ± 0.065
SW872; 0.1235 µM
  relative viability: 0.9475 ± 0.0033
SW872; 0.3704 µM
  relative viability: 0.968 ± 0.019
SW872; 1.111 µM
  relative viability: 0.984 ± 0.023
SW872; 3.333 µM
  relative viability: 0.934 ± 0.029
SW872; 10 µM
  relative viability: 0.694 ± 0.022
VA-ES-BJ; 0.00017 µM
  relative viability: 1.04 ± 0.019
VA-ES-BJ; 0.00051 µM
  relative viability: 1.05 ± 0.035
VA-ES-BJ; 0.00152 µM
  relative viability: 1.07 ± 0.045
VA-ES-BJ; 0.00457 µM
  relative viability: 1.05 ± 0.027
VA-ES-BJ; 0.01372 µM
  relative viability: 1.06 ± 0.038
VA-ES-BJ; 0.04115 µM
  relative viability: 1.07 ± 0.043
VA-ES-BJ; 0.1235 µM
  relative viability: 1.08 ± 0.038
VA-ES-BJ; 0.3704 µM
  relative viability: 1.12 ± 0.049
VA-ES-BJ; 1.111 µM
  relative viability: 1.14 ± 0.055
VA-ES-BJ; 3.333 µM
  relative viability: 1.12 ± 0.091
VA-ES-BJ; 10 µM
  relative viability: 1.06 ± 0.018
SW684; 0.00017 µM
  relative viability: 1.13 ± 0.035
SW684; 0.00051 µM
  relative viability: 1.13 ± 0.016
SW684; 0.00152 µM
  relative viability: 1.19 ± 0.026
SW684; 0.00457 µM
  relative viability: 1.15 ± 0.031
SW684; 0.01372 µM
  relative viability: 1.15 ± 0.026
SW684; 0.04115 µM
  relative viability: 1.129 ± 0.0043
SW684; 0.1235 µM
  relative viability: 1.14 ± 0.042
SW684; 0.3704 µM
  relative viability: 1.12 ± 0.028
SW684; 1.111 µM
  relative viability: 1.16 ± 0.054
SW684; 3.333 µM
  relative viability: 1.13 ± 0.024
SW684; 10 µM
  relative viability: 0.878 ± 0.064
KHOS-NP; 0.00017 µM
  relative viability: 1.04 ± 0.012
KHOS-NP; 0.00051 µM
  relative viability: 1.05 ± 0.02
KHOS-NP; 0.00152 µM
  relative viability: 1.038 ± 0.0067
KHOS-NP; 0.00457 µM
  relative viability: 1.02 ± 0.013
KHOS-NP; 0.01372 µM
  relative viability: 1.02 ± 0.027
KHOS-NP; 0.04115 µM
  relative viability: 1.06 ± 0.026
KHOS-NP; 0.1235 µM
  relative viability: 1.03 ± 0.021
KHOS-NP; 0.3704 µM
  relative viability: 1.01 ± 0.015
KHOS-NP; 1.111 µM
  relative viability: 0.99 ± 0.029
KHOS-NP; 3.333 µM
  relative viability: 0.968 ± 0.021
KHOS-NP; 10 µM
  relative viability: 0.719 ± 0.012
RD; 0.00017 µM
  relative viability: 1.11 ± 0.064
RD; 0.00051 µM
  relative viability: 1.12 ± 0.065
RD; 0.00152 µM
  relative viability: 1.12 ± 0.068
RD; 0.00457 µM
  relative viability: 1.11 ± 0.061
RD; 0.01372 µM
  relative viability: 1.11 ± 0.049
RD; 0.04115 µM
  relative viability: 1.12 ± 0.047
RD; 0.1235 µM
  relative viability: 1.12 ± 0.065
RD; 0.3704 µM
  relative viability: 1.13 ± 0.087
RD; 1.111 µM
  relative viability: 1.12 ± 0.067
RD; 3.333 µM
  relative viability: 1.16 ± 0.079
RD; 10 µM
  relative viability: 1.1 ± 0.027
RD-ES; 0.00017 µM
  relative viability: 0.95 ± 0.045
RD-ES; 0.00051 µM
  relative viability: 0.95 ± 0.063
RD-ES; 0.00152 µM
  relative viability: 0.968 ± 0.023
RD-ES; 0.00457 µM
  relative viability: 0.962 ± 0.043
RD-ES; 0.01372 µM
  relative viability: 0.985 ± 0.027
RD-ES; 0.04115 µM
  relative viability: 0.975 ± 0.038
RD-ES; 0.1235 µM
  relative viability: 0.96 ± 0.047
RD-ES; 0.3704 µM
  relative viability: 0.973 ± 0.031
RD-ES; 1.111 µM
  relative viability: 1 ± 0.044
RD-ES; 3.333 µM
  relative viability: 0.9311 ± 0.002
RD-ES; 10 µM
  relative viability: 0.727 ± 0.02
MES-SA; 0.00017 µM
  relative viability: 0.9224 ± 0.0055
MES-SA; 0.00051 µM
  relative viability: 0.925 ± 0.014
MES-SA; 0.00152 µM
  relative viability: 0.931 ± 0.015
MES-SA; 0.00457 µM
  relative viability: 0.934 ± 0.037
MES-SA; 0.01372 µM
  relative viability: 0.933 ± 0.021
MES-SA; 0.04115 µM
  relative viability: 0.928 ± 0.051
MES-SA; 0.1235 µM
  relative viability: 0.922 ± 0.029
MES-SA; 0.3704 µM
  relative viability: 0.95 ± 0.033
MES-SA; 1.111 µM
  relative viability: 0.931 ± 0.016
MES-SA; 3.333 µM
  relative viability: 0.824 ± 0.025
MES-SA; 10 µM
  relative viability: 0.517 ± 0.015
G401; 0.00017 µM
  relative viability: 0.952 ± 0.019
G401; 0.00051 µM
  relative viability: 1.01 ± 0.017
G401; 0.00152 µM
  relative viability: 0.994 ± 0.045
G401; 0.00457 µM
  relative viability: 0.983 ± 0.072
G401; 0.01372 µM
  relative viability: 1 ± 0.04
G401; 0.04115 µM
  relative viability: 0.949 ± 0.019
G401; 0.1235 µM
  relative viability: 0.909 ± 0.017
G401; 0.3704 µM
  relative viability: 0.864 ± 0.027
G401; 1.111 µM
  relative viability: 0.857 ± 0.02
G401; 3.333 µM
  relative viability: 0.696 ± 0.028
G401; 10 µM
  relative viability: 0.449 ± 0.035
HT1080; 0.00017 µM
  relative viability: 1.03 ± 0.025
HT1080; 0.00051 µM
  relative viability: 1.064 ± 0.0055
HT1080; 0.00152 µM
  relative viability: 1.04 ± 0.03
HT1080; 0.00457 µM
  relative viability: 1.05 ± 0.033
HT1080; 0.01372 µM
  relative viability: 1.045 ± 0.0067
HT1080; 0.04115 µM
  relative viability: 1.05 ± 0.042
HT1080; 0.1235 µM
  relative viability: 1.03 ± 0.04
HT1080; 0.3704 µM
  relative viability: 1.03 ± 0.019
HT1080; 1.111 µM
  relative viability: 1.05 ± 0.022
HT1080; 3.333 µM
  relative viability: 1.07 ± 0.018
HT1080; 10 µM
  relative viability: 1.07 ± 0.033
SW1353; 0.00017 µM
  relative viability: 0.962 ± 0.026
SW1353; 0.00051 µM
  relative viability: 0.952 ± 0.037
SW1353; 0.00152 µM
  relative viability: 0.94 ± 0.035
SW1353; 0.00457 µM
  relative viability: 0.977 ± 0.016
SW1353; 0.01372 µM
  relative viability: 0.96 ± 0.03
SW1353; 0.04115 µM
  relative viability: 0.947 ± 0.051
SW1353; 0.1235 µM
  relative viability: 0.946 ± 0.046
SW1353; 0.3704 µM
  relative viability: 0.939 ± 0.013
SW1353; 1.111 µM
  relative viability: 0.931 ± 0.029
SW1353; 3.333 µM
  relative viability: 0.89 ± 0.051
SW1353; 10 µM
  relative viability: 0.8 ± 0.037
SK-ES-1; 0.00017 µM
  relative viability: 1.02 ± 0.043
SK-ES-1; 0.00051 µM
  relative viability: 1.001 ± 0.0028
SK-ES-1; 0.00152 µM
  relative viability: 1.02 ± 0.024
SK-ES-1; 0.00457 µM
  relative viability: 1.03 ± 0.026
SK-ES-1; 0.01372 µM
  relative viability: 1.02 ± 0.043
SK-ES-1; 0.04115 µM
  relative viability: 1.02 ± 0.023
SK-ES-1; 0.1235 µM
  relative viability: 1.02 ± 0.053
SK-ES-1; 0.3704 µM
  relative viability: 1 ± 0.054
SK-ES-1; 1.111 µM
  relative viability: 1.01 ± 0.035
SK-ES-1; 3.333 µM
  relative viability: 0.916 ± 0.034
SK-ES-1; 10 µM
  relative viability: 0.524 ± 0.041
SK-LMS-1; 0.00017 µM
  relative viability: 0.993 ± 0.037
SK-LMS-1; 0.00051 µM
  relative viability: 1 ± 0.013
SK-LMS-1; 0.00152 µM
  relative viability: 1.02 ± 0.027
SK-LMS-1; 0.00457 µM
  relative viability: 1.06 ± 0.021
SK-LMS-1; 0.01372 µM
  relative viability: 1.01 ± 0.026
SK-LMS-1; 0.04115 µM
  relative viability: 0.998 ± 0.045
SK-LMS-1; 0.1235 µM
  relative viability: 0.973 ± 0.027
SK-LMS-1; 0.3704 µM
  relative viability: 0.9626 ± 0.0087
SK-LMS-1; 1.111 µM
  relative viability: 0.981 ± 0.07
SK-LMS-1; 3.333 µM
  relative viability: 0.935 ± 0.025
SK-LMS-1; 10 µM
  relative viability: 0.776 ± 0.032
